Data published in publication PMC12372887, “Mechanism and cellular actions of the potent AMPK inhibitor BAY-3827” (Science Advances, 2025).

Tests used:
ULK1 = target: T1, ULK1 (Homo sapiens, UniProt O75385); assay: Cell-free ULK1 kinase assay (S108tide); format: biochemical; details: increasing concentrations, 0 to 1 μM
T1 sequence (O75385 1-1050): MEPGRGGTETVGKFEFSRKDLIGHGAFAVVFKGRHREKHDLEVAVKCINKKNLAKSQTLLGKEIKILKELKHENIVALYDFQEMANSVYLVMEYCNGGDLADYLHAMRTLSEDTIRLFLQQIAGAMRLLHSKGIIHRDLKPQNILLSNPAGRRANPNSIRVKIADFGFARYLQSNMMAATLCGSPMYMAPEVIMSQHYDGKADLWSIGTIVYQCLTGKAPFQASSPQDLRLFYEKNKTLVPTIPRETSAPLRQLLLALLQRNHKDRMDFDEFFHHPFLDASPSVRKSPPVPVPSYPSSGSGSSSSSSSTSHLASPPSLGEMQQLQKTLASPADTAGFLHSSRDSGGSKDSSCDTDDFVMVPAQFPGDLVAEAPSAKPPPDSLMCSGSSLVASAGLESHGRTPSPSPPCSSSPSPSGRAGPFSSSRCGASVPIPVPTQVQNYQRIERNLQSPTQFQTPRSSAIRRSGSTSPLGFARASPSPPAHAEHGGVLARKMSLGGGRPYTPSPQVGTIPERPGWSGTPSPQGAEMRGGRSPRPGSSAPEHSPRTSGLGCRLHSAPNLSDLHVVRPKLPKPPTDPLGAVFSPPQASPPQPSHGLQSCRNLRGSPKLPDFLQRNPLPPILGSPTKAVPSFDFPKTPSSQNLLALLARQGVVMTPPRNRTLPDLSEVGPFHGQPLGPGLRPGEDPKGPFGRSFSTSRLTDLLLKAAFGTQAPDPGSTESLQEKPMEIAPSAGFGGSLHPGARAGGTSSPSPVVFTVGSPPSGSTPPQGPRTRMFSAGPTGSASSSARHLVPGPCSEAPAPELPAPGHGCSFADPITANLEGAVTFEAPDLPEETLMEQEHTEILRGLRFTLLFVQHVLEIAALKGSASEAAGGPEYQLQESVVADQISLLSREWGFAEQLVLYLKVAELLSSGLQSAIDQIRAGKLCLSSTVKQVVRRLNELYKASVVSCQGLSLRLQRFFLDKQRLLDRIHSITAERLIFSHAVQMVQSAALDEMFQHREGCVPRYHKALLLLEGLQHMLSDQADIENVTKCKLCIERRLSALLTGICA
Procedure: Heterotrimeric human AMPK FLAG- α1β1γ1, FLAG- α2β1γ1, and FLAG- α2β2γ1, as well as human FLAG-CaMKK2 and FLAG-ULK1, were produced in mammalian HEK293 cells as described ([66], [67]). For AMPK expression, the cells were triply transfected at 60% confluency using FuGene HD (Roche Applied Science) and 1 μg of pcDNA3 plasmid expression constructs for AMPK Flag-α1, β1-Myc, β2-Myc, and HA-γ1. For CaMKK2 expression, the cells were transfected with 1 μg of pcDNA3 Flag-CaMKK2 plasmid. For ULK1 expression, the cells were transfected with […] of pcDNA3 FLAG-ULK1 plasmid. After 48 hours, the transfected cells were harvested by rinsing with ice-cold PBS, followed by rapid lysis using 500 μl of lysis buffer. AMPK, CaMKK2, and ULK1 kinase activities were determined by phosphorylation of synthetic peptide substrates: SAMS (HMRSAMSGLHLVKRR), CaMKKtide ([…]), and S108tide. (KLPLTRSHNNFVARRR), respectively. Briefly, recombinant AMPK, CaMKK2, or ULK1 were immunoprecipitated from 10 μg of transfected cultured cell lysate using 10 μl of anti-FLAG M2 agarose beads [50% (v/v)] […] Radioactivity was quantified by liquid scintillation counting. […]

[1] = system: pThr172-AMPKα in U2OS cells; assay: HTRF assay of Thr172-AMPKα phosphorylation in U2OS cells; format: cell-based, human; details: for AMPK phosphorylation (pThr172): dose response; for EC50: Homo sapiens, U2OS
Procedure: Human osteosarcoma U2OS WT cells were obtained from John Rouse (MRC Protein Phosphorylation and Ubiquitylation Unit, University of Dundee) and were cultured in DMEM high glucose + GlutaMAX Supplement, pyruvate (Thermo Fisher Scientific, catalog no. 31966-021) containing penicillin G (100 U/ml), streptomycin (100 μg/ml), and 10% (v/v) FBS seeding with 50,000 cells per well in a 50-μl volume in culture 96-well cell culture plates (Corning Incorporated costar, #3599). The next day, the media were changed to 50 μl of serum-free media, and 50 μl of serum-free media containing BAY-3827 or BAY-974 was dispensed and left to incubate at 37°C for 30 min. […] HTRF assays using either phospho-Ser^79-ACC1 kit (Revvity, #64ACCPEG) or phospho-Thr^172-AMPK kit (Revvity, #64AMPKPEG) were performed in triplicate in HTRF 96-well low volume white plates (Revvity, #66PL96001) following manufacturer’s instructions. Sealed plates incubated overnight in darkness conditions were scanned at room temperature in Multimode Plate Reader EnVision (PerkinElmer) machine following HTRF setup recommendations for EnVision (Revvity), equipped with a top mirror LANCE/DELFIA single mirror (#412), a UV2 (TRF) 320 excitation filter (#111), emission filter APC 665 (#205), and second emission filter Europium 615 (#203), with a 2000-μs cycle and 60-μs delay, with the number of flashes set to 100 as well as for the 2nd detector. Results were viewed in EnVision Manager software (version 1.13.3009.1401) where 665/615 ratios were calculated, and data were normalized to control condition as %. All assay ratios between control lysate signal/nonspecific signal were greater than 2 as expected of a successful assay following the manufacturer’s instructions. Data were visualized in GraphPad Prism v10.

Compound	inhibitory effect on kinase activity (ULK1)	AMPK phosphorylation (pThr172) [1]	EC50 ([1]; + MK-8722 (10 μM)) [nM]	EC50 ([1]; without MK-8722) [nM]
CC1=C(C#N)C(c2ccc3c(c2)c(NC(=O)c2ccccc2C)nn3C)C(C#N)=C(C)N1 [BAY-974, N-[5-(3,5-dicyano-2,6-dimethyl-1,4-dihydropyridin-4-yl)-1-methylindazol-3-yl]-2-methylbenzamide]	no inhibitory effect	not	–	–
CCc1ccccc1C(=O)Nc1n[nH]c2c(C)c(F)c(C3C(C#N)=C(C)N(C)C(C)=C3C#N)cc12 [BAY-3827, N-[5-(3,5-dicyano-1,2,6-trimethyl-4H-pyridin-4-yl)-6-fluoro-7-methyl-1H-indazol-3-yl]-2-ethylbenzamide]	no inhibitory effect	dose-dependently increased	570	1930
